From patent US20250019520A1, “RELIEF PRECURSORS WITH ENHANCED STABILITY” (XSYS Germany GmbH, priority 2023, published 2025) come the findings set out here.

One data set in a line: Thermal melt stability: onset time of crosslinking by oscillatory rheology at 160° C., SBS-rubber based trial formulation. The settings on record: SBS-rubber based plate formulation with 1 wt % carbamate derivative, crude reaction mixture added without purification. Format: physicochemical. Here is the method:
In the given examples, the amount of stabilizer was varied in the range of 0 to 6.5 parts by weight and the excess was counterbalanced by the amount of binder, respectively. The components were dissolved in a solvent, being toluene (also called methylbenzene) and heated under reflux to obtain a homogeneous solution (concentration in toluene: 45 wt. %).
The solution was then cast on a carrier sheet. The plate thickness was adjusted using a doctor blade with a gap of 3 mm distance to the carrier sheet (PET film with 175 μm thickness).
The solvent was allowed to evaporate at room temperature for 16 hours followed by heating at 65° C. for 4 hours. To allow digital imaging, a mask layer (ML) coated on a cover sheet (CL) was laminated on top of the relief precursor using an Excelam-Q laminator (GMP Deutschland GmbH, Germany). Lamination was carried out at a temperature of the heated roll of 110° C., a velocity of 8.8 mm/s, and at a gap of 1.5 mm. To finish the lamination, the cast plate was sandwiched between two aluminum plates and was kept at 65° C. for 3 h.
The thermal melt stability was assessed by recording the melt viscosity during heating. Crosslinking of the sample was recorded as an increase in viscosity. Oscillatory rheological measurements were carried out using a Kinexus lab+rheometer (Malvern Instruments Ltd., UK) under isothermal (T=160° C.) conditions. Data was recorded using the corresponding software rSPACE version 1.76 (Malvern Instruments Ltd., UK). […] Prior to measurement, any foils (e.g. the cover sheet) and mask layers were removed from the relief precursor. Measurements were carried out in oscillation single frequency mode. The frequency was set to 1 Hz. The gap between the parallel plates was set constant to the respective sample thickness. Data points were recorded every 15 s. The complex shear viscosity η* was monitored over time t. The “onset time of crosslinking” was identified as “the time when the difference quotient Δη*/Δt is ≥1 Pa, with Δt=15 s”. A higher onset time indicates a higher thermal stability and stability towards mechanical stress.
Reaction mixtures were used completely without purification and were simply added to the plate formulation during homogenization in toluene solution. The stoichiometric amount of the reactants was calculated in a way to obtain a concentration of 1 wt % carbamate derivative in the plate formulation, assuming full conversion of the reactants. […] The reaction was quenched with an excess ethanol (same volume as the reaction mixture) and added to the plate formulation in toluene solution. The procedure for production of the plate precursor was followed as mentioned above. The solution was cast on a carrier sheet and traces of THF/ethanol were evaporated together with toluene during the drying step of the plate precursor.
For the compound `CCCCNC(=O)OCC(OC(=O)NCCCC)C1OC(=O)C(O)=C1O` (stereo not drawn) [Entry 1, 1-(3,4-dihydroxy-5-oxo-2,5-dihydrofuran-2-yl) ethane-1,2-diyl bis(butylcarbamate)], the “Onset time t (Δη*/Δt ≥ 1 Pa)/min (OT)” value came to 74 min.
For the compound `Cc1ccc(S(=O)(=O)NC(=O)OCC(OC(=O)NS(=O)(=O)c2ccc(C)cc2)C2OC(=O)C(O)=C2O)cc1` (stereo not drawn) [Entry 2, 1-(3,4-dihydroxy-5-oxo-2,5-dihydrofuran-2-yl) ethane-1,2-diyl bis(tosylcarbamate)], the “Onset time t (Δη*/Δt ≥ 1 Pa)/min (OT)” value came to 5 min.
Consider `O=C(Nc1ccccc1)OCC(OC(=O)Nc1ccccc1)C1OC(=O)C(O)=C1O` (stereo not drawn) [Entry 3, 1-(3,4-dihydroxy-5-oxo-2,5-dihydrofuran-2-yl) ethane-1,2-diyl bis(phenylcarbamate)], for which the “Onset time t (Δη*/Δt ≥ 1 Pa)/min (OT)” value was 51 min.
Regarding `CCO[Si](CCCNC(=O)OCC(OC(=O)NCCC[Si](OCC)(OCC)OCC)C1OC(=O)C(O)=C1O)(OCC)OCC` (stereo not drawn) [Entry 4, 1-(3,4-dihydroxy-5-oxo-2,5-dihydrofuran-2-yl) ethane-1,2-diyl bis((3-(triethoxysilyl)propyl) carbamate)], the “Onset time t (Δη*/Δt ≥ 1 Pa)/min (OT)” value is 20 min.
With `CC(C)(C)NC(=O)OCC(OC(=O)NC(C)(C)C)C1OC(=O)C(O)=C1O` (stereo not drawn) [Entry 5, 1-(3,4-dihydroxy-5-oxo-2,5-dihydrofuran-2-yl) ethane-1,2-diyl bis(tert-butylcarbamate)], the “Onset time t (Δη*/Δt ≥ 1 Pa)/min (OT)” value is 34 min.
In the case of `C=C(C)C(=O)OCCNC(=O)OCC(OC(=O)NCCOC(=O)C(=C)C)C1OC(=O)C(O)=C1O` (stereo not drawn) [Entry 6, 6-(3,4-dihydroxy-5-oxo-2,5-dihydrofuran-2-yl)-4,9-dioxo-5,8-dioxa-3,10-diazadodecane-1,12-diyl bis(2-methylacrylate)], the “Onset time t (Δη*/Δt ≥ 1 Pa)/min (OT)” value was 33 min.
Regarding `C=Cc1ccc(C(C)(C)NC(=O)OCC(OC(=O)NC(C)(C)c2ccc(C=C)cc2)C2OC(=O)C(O)=C2O)cc1` (stereo not drawn) [Entry 7, 1-(3,4-dihydroxy-5-oxo-2,5-dihydrofuran-2-yl) ethane-1,2-diyl bis((2-(4-vinylphenyl)propan-2-yl) carbamate)], the “Onset time t (Δη*/Δt ≥ 1 Pa)/min (OT)” value is 24 min.
Consider `O=C(NC1CCCCC1)OCC(OC(=O)NC1CCCCC1)C1OC(=O)C(O)=C1O` (stereo not drawn) [Entry 8, 1-(3,4-dihydroxy-5-oxo-2,5-dihydrofuran-2-yl) ethane-1,2-diyl bis(cyclohexylcarbamate)], for which the “Onset time t (Δη*/Δt ≥ 1 Pa)/min (OT)” value is on record as 52 min.
As to `C[Si](C)(C)NC(=O)OCC(OC(=O)N[Si](C)(C)C)C1OC(=O)C(O)=C1O` (stereo not drawn) [Entry 9, 1-(3,4-dihydroxy-5-oxo-2,5-dihydrofuran-2-yl) ethane-1,2-diyl bis((trimethylsilyl) carbamate)], the “Onset time t (Δη*/Δt ≥ 1 Pa)/min (OT)” value amounted to 5 min.
With `CCCCCCCCCCCCCCCCCCNC(=O)OCC(OC(=O)NCCCCCCCCCCCCCCCCCC)C1OC(=O)C(O)=C1O` (stereo not drawn) [Entry 10, 1-(3,4-dihydroxy-5-oxo-2,5-dihydrofuran-2-yl) ethane-1,2-diyl bis(octadecylcarbamate)], the “Onset time t (Δη*/Δt ≥ 1 Pa)/min (OT)” value amounted to 6 min.
In the case of `CC(C)c1ccc(NC(=O)OCC(OC(=O)Nc2ccc(C(C)C)cc2)C2OC(=O)C(O)=C2O)cc1` (stereo not drawn) [Entry 11, 1-(3,4-dihydroxy-5-oxo-2,5-dihydrofuran-2-yl) ethane-1,2-diyl bis((4-isopropylphenyl) carbamate)], the “Onset time t (Δη*/Δt ≥ 1 Pa)/min (OT)” value worked out at 55 min.
As for `Cc1cccc(NC(=O)OCC(OC(=O)Nc2cccc(C)c2)C2OC(=O)C(O)=C2O)c1` (stereo not drawn) [Entry 12, 1-(3,4-dihydroxy-5-oxo-2,5-dihydrofuran-2-yl) ethane-1,2-diyl bis(m-tolylcarbamate)], the “Onset time t (Δη*/Δt ≥ 1 Pa)/min (OT)” value is recorded as 33 min.
Regarding `O=C(NCCc1ccccc1)OCC(OC(=O)NCCc1ccccc1)C1OC(=O)C(O)=C1O` (stereo not drawn) [Entry 13, 1-(3,4-dihydroxy-5-oxo-2,5-dihydrofuran-2-yl) ethane-1,2-diyl bis(phenethylcarbamate)], the “Onset time t (Δη*/Δt ≥ 1 Pa)/min (OT)” value is given as 6 min.
Regarding `C=CCCCCCCCCCCNC(=O)OCC(OC(=O)NCCCCCCCCCCC=C)C1OC(=O)C(O)=C1O` (stereo not drawn) [Entry 14, 1-(3,4-dihydroxy-5-oxo-2,5-dihydrofuran-2-yl) ethane-1,2-diyl bis(dodec-11-en-1-ylcarbamate)], the “Onset time t (Δη*/Δt ≥ 1 Pa)/min (OT)” value stood at 44 min.
Regarding `O=C(Nc1cccc2ccccc12)OCC(OC(=O)Nc1cccc2ccccc12)C1OC(=O)C(O)=C1O` (stereo not drawn) [Entry 15, 1-(3,4-dihydroxy-5-oxo-2,5-dihydrofuran-2-yl) ethane-1,2-diyl bis(naphthalen-1-ylcarbamate)], the “Onset time t (Δη*/Δt ≥ 1 Pa)/min (OT)” value was 4 min.
For `C=CC(=O)OCC(C)(COC(=O)C=C)NC(=O)OCC(OC(=O)NC(C)(COC(=O)C=C)COC(=O)C=C)C1OC(=O)C(O)=C1O` (stereo not drawn) [Entry 17, 2-((8-((acryloyloxy)methyl)-3-(3,4-dihydroxy-5-oxo-2,5-dihydrofuran-2-yl)-8-methyl-6,11-dioxo-2,5,10-trioxa-7-azatridec-12-en-1-oyl)amino)-2-methylpropane-1,3-diyl diacrylate], the “Onset time t (Δη*/Δt ≥ 1 Pa)/min (OT)” value is recorded as 6 min.

A short description of the next data set: Kneading trials at 180° C., onset of crosslinking seen as increase in torque. Format: physicochemical. The settings on record: kneading at 180° C. for 60 min, SBS binder plus stabilizer. Here is the method: Kneading trials were carried out using a ThermoFisher Scientifc Haake kneading device equipped with a Haake PolyLab OS RheoDrive 7 control unit, a Haake Rheomix 600 OS heating and kneading chamber with Roller Rotors R600. The torque and the sample temperature were recorded using the software PolySoft, version 2.1.0.1. For the measurement, a temperature of 180° C. was applied. The measurement was carried out for 60 min, respectively. The components were added to the kneading device as solids and were allowed to be mixed in the kneading device.
In the given sample, the amount of stabilizer was varied in the range of 0 to 1.0 parts by weight and the excess was counterbalanced by the amount of binder, respectively.
An increase in torque indicated the onset of crosslinking of the SBS-rubber due to insufficient stabilization. Without additional stabilizer, an increase in torque was observed within the first 10 min of measurement time. With BHT as stabilizer, an increase in torque was detected after 28 min of heating at 180° C. With ascorbyl palmitate, the best result was achieved, where crosslinking was observed after 50 min.
For the compound `Cc1cc(C(C)(C)C)c(O)c(C(C)(C)C)c1` [BHT, 2,6-di-tert-butyl-4-methylphenol, reference compound], the Onset time t/min was found to be 28 min.

The next data set in a line: Thermal melt stability: onset time of crosslinking, SIS-rubber based formulation. It is filed as physicochemical. The settings on record: 160° C. Here is the method: The thermal melt stability was assessed by recording the melt viscosity during heating. Crosslinking of the sample was recorded as an increase in viscosity. Oscillatory rheological measurements were carried out using a Kinexus lab+rheometer (Malvern Instruments Ltd., UK) under isothermal (T=160° C.) conditions. Data was recorded using the corresponding software rSPACE version 1.76 (Malvern Instruments Ltd., UK). As measurement geometry, parallel plates with a diameter of 2.5 cm of the upper plate were chosen. As sample, a disc of a relief precursor with a diameter of 2.5 cm was used. Prior to measurement, any foils (e.g. the cover sheet) and mask layers were removed from the relief precursor. Measurements were carried out in oscillation single frequency mode. The frequency was set to 1 Hz. The gap between the parallel plates was set constant to the respective sample thickness. Data points were recorded every 15 s. The complex shear viscosity η* was monitored over time t. The “onset time of crosslinking” was identified as “the time when the difference quotient Δη*/Δt is ≥1 Pa, with Δt=15 s”. A higher onset time indicates a higher thermal stability and stability towards mechanical stress.
In this example, another trial formulation based on a SIS tri-block copolymer was used. […]
For the compound `Cc1cc(C(C)(C)C)c(O)c(C(C)(C)C)c1` [BHT, 2,6-di-tert-butyl-4-methylphenol, reference compound], the “Onset time t (Δη*/Δt ≥ 1 Pa)/min” value amounted to 16 min.
